Results as given in paper PMC9202104 (BMC Biology, 2022).
Read-outs that look alike come from different tables or passages of the source.

Legend:
[1] = test system: ZIKV human strain PAN2016 (2016/Panama); assay: Plaque assay, inhibition of ZIKV infection (strain PAN2016)
Method: After removal of the unbound compounds by centrifugation (after addition of 3% PEG-6000), ZIKV was incubated with Vero E6 cells in 24-well plates at 37°C for 1 h. The cells were then washed with PBS, overlaid with DMEM containing 1% carboxymethyl cellulose and 2% FBS, and cultured at 37°C for 4–5 days, followed by being stained with 0.5% crystal violet. […] Plaques in each well were calculated, and IC50 of compounds for each compound was calculated using the CalcuSyn computer program.

[2] = in vitro; assay type: cell-based; conditions: rhesus monkey
Method: Briefly, compounds at 2-fold serial dilutions were added to the respective cells (2.0×10^4/well) pre-seeded in 96-well plates. The cells were cultured at 37°C in the presence of 5% CO2 for 3 days, […] incubated with CCK8 solution, followed by measurement of absorbance at 450 nm (A450 value), using a microplate reader (Infinite F200PRO, Tecan, Morrisville, NC, USA). CC50 of compounds was calculated using the CalcuSyn program.

[3] = test system: DENV-3-V1043; assay: Plaque assay, inhibition of DENV-3 infection in LLC-MK2 cells; assay type: cell-based; conditions: Dengue virus, DENV3
[4] = test system: DENV-4-PR-06-65-740; assay: Plaque assay, inhibition of DENV-4 infection in LLC-MK2 cells; assay type: cell-based; conditions: Dengue virus, DENV4
[5] = test system: ZIKV (PAN2016); assay: Time-of-addition experiment in Vero E6 cells; assay type: cell-based, Zika virus; conditions: for inhibition at 15 µM: Zika virus, Vero C1008, Vero E6 cells
Method: Briefly, Vero E6 cells (10^5/well) and/or ZIKV were incubated in 24-well plates with or without the above compounds (15 μM) for 1 h before, 1 h after, or the same time during infection of ZIKV (the detailed procedures were described below and published previously). The following six conditions of ZIKV infection were tested: (1) condition 1: pretreatment of the virus. […] The plaque assay was performed following the standard protocol described above and before. (2) condition 2: pretreatment of cells. […] The unbound ZIKV was removed, and the cells were cultured and plaques calculated as in condition 1. (3) Condition 3: attachment. […] After removal of the unbound ZIKV and compounds, the cells were cultured and plaques calculated as in condition 1. (4) Condition 4: cotreatment. […] After removal of the unbound virus and compounds, the cells were cultured and plaques were calculated as in condition 1. (5) condition 5: fusion. Cells were incubated with ZIKV (PAN2016, 300 PFU) at 4°C for 1 h for ZIKV attachment. […] The unbound compounds were removed, and the cells were cultured and plaques calculated as in condition 1. (6) Condition 6: post-entry. Cells were incubated with ZIKV (PAN2016, 100 PFU) at 37°C for 1 h for ZIKV entry. […] The unbound compounds were then removed, and the cells were cultured and calculated for plaques as in condition 1. Since variant conditions may affect the formation of plaques, the use of different PFUs can ensure that the number of plaques in the DMSO control group is about 100/well for each condition.

[6] = biological target: T1, ZIKV full-length envelope (E) protein (Zika virus, UniProt Q32ZE1); assay: ELISA binding to ZIKV full-length E protein
T1 construct: ZIKV full-length E (Aviva Systems Biology, San Diego, CA, USA); purchased Aviva Systems Biology
Method: Briefly, ELISA plates were coated with each protein (1 μg/ml) at 4°C overnight and were then incubated with blocking buffer containing 2% fat-free milk in PBST (0.05% Tween-20) at 37°C for 2 h. The above compounds, or DMSO control, at serial dilutions were added to the plates and incubated at 37°C for 2 h. After three washes using PBST, the plates were incubated at 37°C for 2 h with ZIKV EDIII-specific human mAb ZKA64-LALA (0.5 μg/ml) (for binding to ZIKV full-length E or EDIII protein), or ZIKV NS2B-NS3-specific mouse sera (for binding to NS2B-NS3 protein). After further washes, the plates were incubated with horseradish peroxidase (HRP)-conjugated anti-human IgG-Fab (1:3,000, Abcam, Cambridge, MS, USA) or anti-mouse IgG (1:3,000, Sigma) antibody at 37°C for 1 h. The plates were incubated with substrate TMB (3,3′,5,5′-tetramethylbenzidine) for 1 min, and the reaction was stopped by addition of 1 N H2SO4. Absorbance at 450 nm (A450 values) was measured by an ELISA microplate reader. Percent binding (% binding) to the E, EDIII, or NS2B-NS3 protein was calculated in the presence or absence of serially diluted compounds using the formula ((1-(E/EDIII/NS2B-NS3-compound)/(E/EDIII/NS2B-NS3))×100), based on which EC50 was calculated using the CalcuSyn program.

[7] = test system: DENV-2 human strain V594; assay: DENV-2 challenge in Ifnar1−/− mice, flow cytometry titers; assay type: in vivo; conditions: 20 mg/kg i.p., 3 dpi
Method: Three days after infection, sera and tissues, including the brain, kidney, and heart, were collected and assessed for DENV infection using a flow cytometry assay, as described below. Tissues were freshly homogenized with cold culture medium (EMEM + 2% FBS) and centrifuged at 4°C and 2000 g for 10 min. Serially diluted tissue supernatants and sera were added to C6/36 cells, as described below. DENV titers in tissues or sera were assessed from ~20 mg of tissue samples, or 25 μl of sera, and used for subsequent flow cytometry analysis.
Flow cytometry assay was carried out to analyze DENV-2 titers in the supernatants of homogenized tissues and sera from DENV-2-infected mice collected above. Briefly, homogenized tissue supernatants or sera were added to C6/36 cells (5×10^5 cells/well) pre-seeded in 24-well plates which the culture medium was removed, and the cells were incubated for 1 h (28°C, 5% CO2). After incubation, the cells were washed with PBS, incubated with EMEM containing 2% FBS, and then cultured for 3 days as described above. After further removal of medium, the cells were digested, washed with PBS, and resuspended in FIX/PERM solution (Tonbo Biosciences, San Diego, CA, USA), followed by incubation at 4°C for 1 h in the dark. The cells were then sequentially incubated with mouse anti-flavivirus mAb 4G2 (2 μg/ml) at 37°C for 1 h and FITC-labeled anti-mouse IgG (0.5 mg/ml, BioLegend, San Diego, CA, USA) at 37°C for 30 min, followed by analysis using a FACScan flow cytometer and Summit software. Viral titers (infectious units/ml or infectious units/g) were calculated using the formula ((% of infected cells)×(total number of cells)×(dilution factor)/(amount of inoculum added to cells)).

[8] = C6/36 cells, flow cytometry, representative image

T1 sequence (Q32ZE1 291-790): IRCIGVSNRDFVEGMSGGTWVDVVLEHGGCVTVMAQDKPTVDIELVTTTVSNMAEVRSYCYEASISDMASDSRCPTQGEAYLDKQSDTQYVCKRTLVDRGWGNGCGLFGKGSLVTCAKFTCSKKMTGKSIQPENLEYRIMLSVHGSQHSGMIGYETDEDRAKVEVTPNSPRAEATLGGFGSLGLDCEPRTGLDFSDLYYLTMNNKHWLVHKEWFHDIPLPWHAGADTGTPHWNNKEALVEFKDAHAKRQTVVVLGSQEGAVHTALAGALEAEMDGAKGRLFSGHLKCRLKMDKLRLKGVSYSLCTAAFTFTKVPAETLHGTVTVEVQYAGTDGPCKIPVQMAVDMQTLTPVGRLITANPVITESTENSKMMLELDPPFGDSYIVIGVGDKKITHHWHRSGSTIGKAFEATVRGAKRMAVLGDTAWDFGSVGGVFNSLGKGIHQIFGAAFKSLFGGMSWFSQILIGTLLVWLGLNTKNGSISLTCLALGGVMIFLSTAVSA

## Cc1cc2c(C(C)C)c(O)c(O)c(/C=N/n3c(=O)[nH][nH]c3=O)c2c(O)c1-c1c(C)cc2c(C(C)C)c(O)c(O)c(/C=N/n3c(=O)[nH][nH]c3=O)c2c1O [ST087010]
[1]; CC50 Vero E6 / IC50 ZIKV PAN2016
  SI (CC50/IC50): 15.63
[1]; Zika virus, Vero C1008, in Homo sapiens, read-out: IC50 against infection of ZIKV PAN2016, plaque assay, Vero E6 cells
  IC50: 3.2 µM
[1]; read-out: IC50 against infection of ZIKV PAN2016, plaque assay, Vero E6 cells
  IC50: 3.17 ± 0.18 µM
[2]
  CC50 at 3 days: 47.2 ± 1.35 µM
[3]
  IC50: 3.33 ± 0.08 µM
[4]
  IC50: 2.98 ± 0.18 µM
[5]; 15 μM, Vero E6 cells
  Inhibition of ZIKV infection, condition 2: pretreatment of cells: no, or little
  Inhibition of ZIKV infection, condition 4: cotreatment: no, or little
  Inhibition of ZIKV infection, condition 5: fusion: no, or little
[5]; 15 μM, virus incubated with compound at 37°C for 1 h before Vero E6 cells
  Inhibition of ZIKV infection, condition 1: pretreatment of the virus: almost completely inhibited
[5]; 4°C 1 h, read-out: Inhibition of ZIKV infection, condition 3: attachment
  inhibition at 15 µM: < 40%
[5]; read-out: Inhibition of ZIKV infection, condition 6: post-entry
  inhibition at 15 µM: < 20%
[6]
  EC50: 6.47 µM
[7]; DENV-2 V594 2×10^6 PFU, compared to gossypol and DMSO
  Numbers of infected cells (viral titers) in the brain, kidney, heart, and sera: significantly reduced
[7]; [8]
  DENV-2 in brain, percentage of infected cells: 1.1%
  DENV-2 in heart, percentage of infected cells: 1.0%
  DENV-2 in kidney, percentage of infected cells: 3.1%
  DENV-2 in sera, percentage of infected cells: 1.3%
